From US9737525B2, “Small molecule activators of NRF2 pathway” (The General Hospital Corporation, priority 2013, dated 2017)

Key:
[1] = system: Drosophila expressing mutant Htt exon 1; test: Drosophila model of HD, photoreceptor neuron (rhabdomere) survival; type: in vivo; conditions: 10 μM, treated vs. untreated flies, day 7 after eclosion
Description: Compound treatment of Drosophila HD model and efficacy analysis of MIND4 effects on photoreceptor neurons was performed as described (Steffan et al., 2001; Pallos et al., 2008). Drosophila models have been important in the genetic identification of pathological and neuroprotective mechanisms as well as for testing therapeutic candidates in HD (Marsh et al., 2003). In wild type flies, seven rhabdomeres (photoreceptor neurons) are visible in the adult eye, whereas chronic expression of mHTTex1 causes progressive degeneration of these neurons, detected as a reduction of rhabdomere number. Rhabdomeres were counted on day 7 after eclosion in animals treated with varying doses of MIND4. The indicated numbers of flies were scored for each condition (n) with the number of ommatidia scored indicated in parentheses. Trial 1: DMSO=11(449); MIND4 1 μM=3(112); MIND4 10 μM=9(337); […]=9(364). […]
MIND4 was tested for its potential efficacy by monitoring the degeneration of photoreceptor neurons in the eyes of Drosophila expressing expanded repeat HTT exon 1 protein in all neurons beginning during embryogenesis (Steffan et al., 2001). […] Chronic expression of mutant HTT causes progressive degeneration of these neurons, detected as a reduction of rhabdomeres number. Rhabdomeres were counted on day 7 after eclosion in animals treated with varying doses of MIND4. […]

[2] = system: primary neurons from HD140CAG mice; test: ROS detection assay in primary neurons; type: cell-based, mouse; conditions: 0.1 μM and 0.25 μM, 4 days
Description: Elevated levels of reactive oxygen species (ROS) have been implicated in normal brain aging and in the pathogenesis of numerous neurodegenerative diseases, including HD. The neuroprotective properties of NRF2 activation have been reported to boost antioxidant defenses in astrocytes, but in this study it was determined whether NRF2 induction mediates protective antioxidant activity in mutant Htt expressing primary neurons. It was determined whether NRF2 activation could reduce mHtt associated ROS in primary neurons isolated from embryonic brains (E15-E17) of HD140CAG mice, which display strikingly elevated ROS levels compared to cells derived from wild type mice. HD and wild type neurons were treated with MIND4-17 at 0.1 μM and 0.25 μM doses for 4 days, and ROS were measured.
ROS detection in primary neurons was performed as previously described by [Valencia, 2013]. Briefly, neurons were plated on glass coverslips pretreated with poly-L-lysine for 24 hours. At 4 DIV wild type and HDQ140 neurons were treated with compound MIND4-17 at 4 DIV, then ROS were measured in live cells at 8 DIV. Prior to ROS measurements, neurons were loaded with […] of the non-fluorescent ROS-detector carboxy-DCFDA-AM (Invitrogen) for 15 min at 37° C. […] Images were acquired through a 60× oil immersion Nikon Apo objective DIC H (NA 1/4 1.4) and quantified using ImageJ software (NIH).

## O=[N+]([O-])c1ccc(Sc2nnc(COc3ccccc3)n2-c2ccccc2)c2ncccc12 [MIND4, 5-nitro-8-{[5-(phenoxymethyl)-4-phenyl-4H-1,2,4-triazol-3-yl]thio}quinoline]
[1]
  Relative rescue of photoreceptor neurons, Trial 1: 22.6%
  Relative rescue of photoreceptor neurons, Trial 2: 20.7%

## O=[N+]([O-])c1ccc(Sc2nnc(COc3ccccc3)n2-c2ccccc2)nc1 [MIND4-17]
[2]
  Basal ROS levels in wild type neurons: No effects on basal ROS levels were detected
  ROS levels in HD neurons: significant reduction of ROS
